Laboratory results from patent publication US8840924B2, “Compositions and methods of making rapidly dissolving ionically masked formulations” (NEOS Therapeutics, LP, priority 2005, dated 2014).

Assays:
[1] = Dissolution profile of chewable tablet (release of pseudoephedrine and chlorpheniramine); type: physicochemical
Source text: Below is a list of actual assay results for one example of the present invention with the composition listed as formula II above.
Below is a list of assay results for one example of the present invention with the composition listed as formula II above.

[2] = Dissolution profile of capsule (release of pseudoephedrine and chlorpheniramine); type: physicochemical; conditions: Table 4, capsules
Source text: In addition the composition may be in the form of a capsule. Below is a list of actual assay results for one example of the present invention when in the form of a capsule.

[3] = Table 1, chewable tablet, composition formula II
[4] = Table 2, after Example III, text says formula II
[5] = Table 3, composition listed as formula II

| Compound | release, 30 min (%) [1, 3] [%] | release, 1 Hr (%) [1, 3] [%] | release, 3 Hr (%) [1, 3] [%] | release, 8 Hr (%) [1, 3] [%] | release, 30 min (%) [1, 4] [%] | release, 1 Hr (%) [1, 4] [%] | release, 3 Hr (%) [1, 4] [%] | release, 8 Hr (%) [1, 4] [%] | release, 30 min (%) [1, 5] [%] | release, 1 Hr (%) [1, 5] [%] | release, 3 Hr (%) [1, 5] [%] | release, 8 Hr (%) [1, 5] [%] | release, 90 min (%) [2] [%] | release, 3 Hr (%) [2] [%] | release, 6 Hr (%) [2] [%] | release, 12 Hr (%) [2] [%] | release, 30 min (%) ([1]; Table 1, chewable tablet, composition formula II, listed as pseudoephedrine) |
| --- | --- | --- | --- | --- | --- | --- | --- | --- | --- | --- | --- | --- | --- | --- | --- | --- | --- |
| CN(C)CCC(c1ccc(Cl)cc1)c1ccccn1 (stereo not drawn) [Chlorpheniramine] | 35.1 | 42.7 | 51.6 | 60.8 | 36.4 | 42.1 | 51.0 | 60.7 | 40.1 | 45.1 | 53.3 | 62.1 | 21.9 | 35.4 | 55.2 | 78.6 |  |
| CN[C@@H](C)[C@@H](O)c1ccccc1 [Pseudoephedrine] | 27.6 | 37.8 | 59.4 | 82.0 | 27.0 | 36.3 | 53.0 | 78.4 | 29.2 | 39.7 | 61.2 | 85.2 | 34.8 | 54.1 | 75.4 | 91.7 | 26.7 |
